One assay concerns the target T1, mouse NaCT (Mus musculus, UniProt Q67BT3).
T1 sequence (Q67BT3 1-572): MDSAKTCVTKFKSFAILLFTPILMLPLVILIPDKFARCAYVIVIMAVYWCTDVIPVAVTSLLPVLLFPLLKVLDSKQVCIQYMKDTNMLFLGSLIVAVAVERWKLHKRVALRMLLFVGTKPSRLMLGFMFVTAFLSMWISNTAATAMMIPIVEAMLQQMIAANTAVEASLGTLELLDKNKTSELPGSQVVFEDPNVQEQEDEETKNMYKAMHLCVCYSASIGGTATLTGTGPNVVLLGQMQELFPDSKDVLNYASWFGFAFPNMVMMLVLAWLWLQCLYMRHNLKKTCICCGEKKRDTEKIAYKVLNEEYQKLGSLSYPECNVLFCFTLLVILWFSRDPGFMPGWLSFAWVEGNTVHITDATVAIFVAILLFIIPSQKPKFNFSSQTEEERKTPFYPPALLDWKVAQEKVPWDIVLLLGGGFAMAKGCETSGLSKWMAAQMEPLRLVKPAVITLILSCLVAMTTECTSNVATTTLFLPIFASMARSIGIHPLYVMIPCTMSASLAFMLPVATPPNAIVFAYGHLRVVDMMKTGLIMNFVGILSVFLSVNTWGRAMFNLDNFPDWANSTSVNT
Kind of assay: Mouse NaCT in X. laevis oocytes, two-microelectrode voltage clamp. The assay is classed as cell-based. The note with it: 0.5 mM citrate; three oocytes; −50 mV. Here is the method:
Functional expression of mouse and rat NaCTs in Xenopus laevis oocytes. Capped cRNA from the cloned mouse NaCT cDNA was synthesized using the mMESSAGE mMACHINE kit (Ambion Inc., Austin, Tex., USA). In some experiments, rat NaCT of Example 2 was used for functional expression. […] On the following day, oocytes were injected with 50 ng cRNA. Water-injected oocytes served as controls. The oocytes were used for electrophysiological studies 4-6 days after cRNA injection. Electrophysiological studies were performed by the two-microelectrode voltage-clamp method (Hatanaka et al., J. Clin. Invest. (2001);107: 1035-1043 and Nakanishi et al., J. Physiol. (2001);532: 297-304). […] The membrane potential was clamped at −50 mV. […] The oocytes were perifused with 50 μM [^14C]-citrate or 50 μM succinate (unlabeled plus radiolabeled succinate) and inward currents were monitored over a period of 10 min. […] The area within the curve describing the relationship between the time and inward current was integrated to calculate the charge transferred into the oocyte during incubation with citrate or succinate. The values for substrate transport and charge transfer were used to determine the charge-to-substrate ratio.

Assay [1] addresses T2, hNaDC3 (Homo sapiens, UniProt Q8WWT9).
T2 sequence (Q8WWT9 1-602): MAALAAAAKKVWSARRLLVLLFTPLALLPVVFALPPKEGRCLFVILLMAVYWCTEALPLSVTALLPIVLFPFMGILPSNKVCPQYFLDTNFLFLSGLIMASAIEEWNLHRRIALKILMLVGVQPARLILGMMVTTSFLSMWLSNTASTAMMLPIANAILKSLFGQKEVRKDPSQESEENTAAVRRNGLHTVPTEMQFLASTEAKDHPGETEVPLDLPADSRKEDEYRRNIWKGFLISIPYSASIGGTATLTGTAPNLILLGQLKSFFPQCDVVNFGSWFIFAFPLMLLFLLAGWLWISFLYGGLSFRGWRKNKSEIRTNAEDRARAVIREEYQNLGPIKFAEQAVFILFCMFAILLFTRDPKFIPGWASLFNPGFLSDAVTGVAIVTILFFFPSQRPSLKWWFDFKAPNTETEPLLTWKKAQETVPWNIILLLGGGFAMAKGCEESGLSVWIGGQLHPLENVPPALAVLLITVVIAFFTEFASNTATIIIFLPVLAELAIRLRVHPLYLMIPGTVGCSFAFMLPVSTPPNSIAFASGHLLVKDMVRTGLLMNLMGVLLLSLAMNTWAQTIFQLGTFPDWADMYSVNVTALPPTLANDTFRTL
Kind of assay: cell-based.

Assay [2] addresses T2, hNaDC3. As to conditions: read-out: Km for succinate, hNaDC3; as determined by Wang et al.; cited from earlier work.
In the next assay the test system is NaDC3. The note with it: cited from earlier work.

On mouse NaCT, `O=C(O)CC(O)(CC(=O)O)C(=O)O` [Citrate] yielded a Citrate-induced inward current of 30±7 nA. The Ki at hNaDC3 [1] came to 2100 ± 300 µM.
As for `O=C(O)CCC(=O)O` [Succinate, succinate], at hNaDC3 [2], the Km was 20 ± 1 µM. Further, the “Michaelis-Menten constant for succinate, NaDC3” value in the assay with NaDC3 is 2 to 50 µM.
